Experimental findings from patent publication US10604473B2, “Lipids that increase insulin sensitivity and methods of using the same” (Beth Israel Deaconess Medical Center, Inc., priority 2013, dated 2020) are described below.

Data set [1] can be described thus: Serum 5-PAHSA after oral administration. In kind it is in vivo, mouse. The note with it: oral gavage. How it is done:
FIG. 56 is a bar graph showing serum 5-PAHSA levels after oral administration of synthesized 5-PAHSA. 3 h after food removal, mice were gavaged with 30 mg/kg body weight (chow-fed) or 45 mg/kg body weight (HFD-fed) of 5-PAHSA. 5 h post gavage, blood was collected via tail vein and serum 5-PAHSA was analyzed by mass spectrometry. n=3 mice per group. Data are expressed as mean±s.e.m. *p<0.05 vs. vehicle treated on the same diet; and δp<0.05 vs. chow vehicle.

Another data set has as its system isolated rat islets. The experiment in a line: Insulin release in isolated rat islets. In kind it is cell-based. Particulars: 25 mM glucose in the media. How it is done: Ins1 cells (FIG. 21) or primary rat islet cells (FIG. 22) were seeded in 24 well-plates [˜10^6 cells/well]. At confluence, cells were incubated with Low Serum [2.5%] and Low Glucose [2.5 mM] media for 12 hours. Next, cells were incubated with KRB buffer for 1 h and stimulated with glucose in the presence of 5-PAHSA (FIG. 21) or 9-PAHSA (FIG. 21) for 45 min in KRB. At the end of the stimulation, 100 μL of media was collected and 10 μL was used to quantitate the amount of insulin released by ELISA. Treatment Conditions for FIGS. 21 and 22 were: • 5-PAHSA or 9-PAHSA [Stock]=20.0 mM [10.76 mg/mL Methanol] • A] 1 uM=0.3 uL/6 mL [Amount of methanol/mL=0.05 uL] • B] 5 uM=1.5 uL/6 mL [Amount of methanol/mL=0.25 uL] • C] 10 uM=3.0 uL/6 mL [Amount of methanol/mL=0.50 uL] • D] 20 uM=6.0 uL/6 mL [Amount of methanol/mL=1.00 uL] […]
Isolated rat islets were cultured overnight in RPMI 1640 medium containing 2.5 mM glucose and 2.5% fetal bovine serum supplemented with 100 IU/ml penicillin and 100 IU/ml streptomycin, 1 mM sodium pyruvate, and 10 mM HEPES (pH 7.4). […] At the end of the stimulation supernatant was collected and insulin released into the medium was quantified by ELISA as per manufacturer's protocol. The islets were lysed and protein content was measured and the amount of insulin released into the media was quantitated as ng/mL/μg of protein.

The test system of data set [2] is LPS-activated dendritic cells. Put plainly: LPS-induced activation of bone marrow-derived dendritic cells. In kind it is cell-based, mouse. How it is done:
Mouse bone marrow cells were flushed from the femurs and tibiae. The red blood cells were eliminated and the cells plated at a density of 1.0×10^6 cells/mL in RBMI complete medium containing 10% FCS plus 20 ng/ml GM-CSF. The medium was replaced on day 4, and the cells were harvested on day 6 to obtain immature DCs. To obtain mature DCs, LPS was added to the cultures at a final concentration of 100 ng/mL on day 6, and the cells were cultured for an additional 24 h, as previously described by Macia, L., et al. Impairment of dendritic cell functionality and steady-state number in obese mice. J Immunol 177, 5997-6006 (2006), which is incorporated by reference in its entirety. To test the anti-inflammatory effects of 9-PAHSA, immature BMDC were treated with 9-PAHSA in a dose response dependent manner in the presence of 100 ng/mL of LPS. The activation status of the BMDCs was evaluated by measuring the expression of MHCII and co-stimulatory molecules using Flow Cytometry and by the production of pro-inflammatory cytokines (IL-6, TNF, IL-12 and IL-1β) which was assessed by ELISA.
Mouse bone marrow cells were flushed from the femurs and tibiae. The red blood cells were lysed, and the cells were plated at a density of 0.5×10^6 cells/mL in RPMI 1640 Low medium (Gibco, USA) containing 10% FCS (Gibco, USA) and 20 ng/mL GM-CSF. […]
The immature dendritic cells obtained in the day 6 were maturated with LPS in the presence of different concentrations of 9-PAHSA varying between 100 ng/mL to 20 ug/mL. The cells were maturated for 24 h and the maturation status analyzed by cytokine production and co-stimulatory molecules expression.
The cells were analyzed by Multicolor Flow cytometry. […] The cells were analyzed with an LSR II flow cytometer (BD) and FlowJo software.
An ELISA assay (Biolegend) was used to measure the concentration of IL-12p70 protein in conditioned media from immature and mature BMDCs. This assay allowed for the detection of total IL-12p70 concentrations in the range of 15.6-1,000 pg/ml, and the results are expressed as pg/mL IL-12p70.

As to `CCCCCCCCCCCCCCCC(=O)OC(CCCCCCCCCCCCC)CCCC(=O)O` (stereo not drawn) [5-PAHSA], the “serum 5-PAHSA levels versus chow baseline” value in data set [1] (HFD-fed mice) was “more than restored the levels”. The “increase in serum 5-PAHSA levels” value in data set [1] (mice on chow (30 mg/kg) and HFD (45 mg/kg), 5 h post gavage) was 3-5 fold. Further, the glucose-stimulated insulin secretion result in the data set with isolated rat islets is recorded as “potentiates glucose-stimulated insulin secretion”.

`CCCCCCCCCCCCCCCC(=O)OC(CCCCCCCCC)CCCCCCCC(=O)O` (stereo not drawn) [9-PAHSA, palmitoyl-9-hydroxystearic acid]: the IL-12 production result in data set [2] (LPS 100 ng/mL) was “blocks IL-12 production”. Also, the “expression of MHCII and co-stimulatory molecules (CD40, CD80, CD86)” value in data set [2] (LPS-induced) was “reducing expression of MHCII and co-stimulatory molecules”. For the same compound, the “LPS-induced dendritic cell activation” value in data set [2] (dose response) is “prevents LPS-induced dendritic cell activation in a dose dependent manner”.
